# Results published in PMC3350394, “Kinetic analysis and test-retest variability of the radioligand [^11C](R)-PK11195 binding to TSPO in the human brain - a PET study in control subjects” (EJNMMI Research, 2012).
# Several values for one entry are separate records, joined by “and”; a condition that tells them apart may be missing. Equal values may be shown once.
# Target: TSPO (Homo sapiens, UniProt P30536)
# Test: PET, kinetic compartment analysis (1TCM, 2TCM) with metabolite-corrected arterial input function
# Conditions: for BPND (k3/k4) Mean: mean of test and retest; for BPND (k3/k4) Retest / BPND (k3/k4) Test / VT (2TCM): mean(SD); for BPND (k3/k4) Retest / BPND (k3/k4) Test: 6 subjects; for ICC: BPND test-retest
# Method: Each subject was placed recumbent with the head in the PET system. A head fixation system with an individual plaster helmet was used. A cannula was inserted into the left radial artery and another into the right antecubital vein. A sterile phosphate buffer (pH = 7.4) containing radioligand was injected as a bolus over 2 s into the cubital vein. The cannula was then immediately flushed with a 10-mL saline solution. In each individual, the measurement was repeated after approximately 6 weeks.
# The PET system used was ECAT Exact HR 47 (Siemens/CTI, Knoxville, TN, USA), with an in-plane and an axial resolution of 3.6 and 4.0 mm, respectively, full width at half maximum (FWHM). The radioactivity in the brain was measured continuously for 60 min using a pre-programmed sequence of […] (20 s × 9, 30 s × 6, 180 s × 5, 300 s × 5). […] The images were reconstructed with a Hanning filter (FWHM = 2 mm) in a matrix of 128 × 128 × 47 voxels, yielding a voxel size of 2.03 × 2.03 × 3.125 mm. Attenuation correction was done using transmission scan data obtained for each subject.
# [^11C](R)-PK11195 binding to TSPO was quantified using kinetic compartment analyses with the metabolite-corrected arterial plasma curve as input function. Two compartment models (one- and two-tissue) were used to fit the model to the TACs. The fractional volume of blood present in the tissue volume and bolus time were estimated for each individual, each occasion, by fitting the whole brain TAC with a two-tissue compartment model.
# The one-tissue compartment model (1TCM) describes one compartment which is a composite of free, non-specifically and specifically bound radioligands. The two rate constants, K1 and k2, describe the influx and efflux rates across the blood-brain barrier, respectively.
# The two-tissue compartment model (2TCM) has been described in detail in the literature. The two-tissue compartments are defined as the radioactivity concentration of a nondisplaceable radioligand in the brain (CND) and the radioactivity concentration of a radioligand specifically bound to receptors (CB). In this model, four rate constants (K1, k2, k3 and k4) explain the time curves for radioligand in the brain. In short, the four rate constants were determined by curve fitting with a weighted non-linear least squares fitting technique with constraint-restricting parameters between 0 and 0.9. Each initial value for K1, k2, k3 and k4 was 0.5, 0.1, 0.5 and 0.5, respectively. The local minimum of the sum of the squared residuals was determined by iteration.
# Regional [^11C](R)-PK11195 binding was expressed using the concept of the total distribution volume (VT), which is defined by the following equation, using kinetic constants obtained from 2TCM [16, 20, 21].
# Specific [^11C](R)-PK11195 binding was expressed as binding potential relative to nondisplaceable binding (BPND) as follows:
# The fractional volume of blood present in the tissue volume was determined for each individual, each occasion. It was obtained by fitting whole brain TAC with a 2TCM with six parameters (K1, k2, k3, k4, fractional blood volume (VB) and time shift between plasma input function and PET TAC (tbolus)) and parameters VB and tbolus subsequently applied for each brain region.
# The reproducibility of two successive PET measurements was analysed by means of descriptive statistics (mean, range, SD, coefficient of variance (CV), difference in measurement (error in percent) and intra-class correlation coefficient (ICC)). The ICC was calculated from the between-subject and within-subject variations, using the expression: […]
# [1] = brainstem, BPND test-retest difference in measurements
# [2] = brainstem, VT (2TCM) test-retest
# [3] = caudate (L), BPND test-retest difference in measurements
# [4] = caudate (R), BPND test-retest difference in measurements
# [5] = cerebellum, BPND test-retest difference in measurements
# [6] = cerebellum, VT (2TCM) test-retest
# [7] = grey matter, cortex, BPND test-retest difference in measurements
# [8] = grey matter, 1TCM, retest (2), individual subjects 1-6
# [9] = grey matter, 1TCM, test (1), individual subjects 1-6
# [10] = grey matter, 1TCM, test (1), mean(SD/CV) of 6 subjects
# [11] = grey matter, 2TCM, retest (2), individual subjects 1-6
# [12] = grey matter, 2TCM, retest (2), mean(SD/CV) of 6 subjects
# [13] = grey matter, 2TCM, test (1), individual subjects 1-6
# [14] = grey matter, 2TCM, test (1), mean(SD/CV) of 6 subjects
# [15] = grey matter, VT (2TCM) test-retest
# [16] = putamen (L), BPND test-retest difference in measurements
# Chain of TSPO (P30536 whole entry): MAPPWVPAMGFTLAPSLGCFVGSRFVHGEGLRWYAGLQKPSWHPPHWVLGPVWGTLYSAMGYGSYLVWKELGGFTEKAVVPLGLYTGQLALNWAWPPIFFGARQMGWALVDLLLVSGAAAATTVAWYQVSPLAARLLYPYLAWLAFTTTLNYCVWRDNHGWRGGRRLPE
structure (smiles),measurement,setting,value
CC[C@@H](C)N([11CH3])C(=O)c1cc2ccccc2c(-c2ccccc2Cl)n1 [[^11C](R)-PK11195],influx rate constant K1,"2TCM, range",0.05 to 0.09
same,"BPND throughout the human brain, range","2TCM, regional means",1.11 to 2.21
same,BPND (k3/k4) Mean,"brainstem, 2TCM",2.09
same,BPND (k3/k4) Retest,"brainstem, 2TCM",2.18(0.33)
same,BPND (k3/k4) Test,"brainstem, 2TCM",2.00(0.35)
same,ICC,brainstem,-0.6
same,Error % mean(SD),[1],-13(31) %
same,Error range (%),[1],-45 to 26%
same,Error % mean(SD),[2],-13(10) %
same,Error range (%),[2],-29 to -1%
same,VT (2TCM),"brainstem, retest",0.74 (0.16)
same,VT (2TCM),"brainstem, test",0.86(0.18)
same,BPND (k3/k4) Mean,"caudate (L), 2TCM",1.68
same,BPND (k3/k4) Retest,"caudate (L), 2TCM",1.84(0.93)
same,BPND (k3/k4) Test,"caudate (L), 2TCM",1.52(0.43)
same,ICC,caudate (L),-0.05
same,Error % mean(SD),[3],-27(66) %
same,Error range (%),[3],-133 to 42%
same,BPND (k3/k4) Mean,"caudate (R), 2TCM",1.77
same,BPND (k3/k4) Retest,"caudate (R), 2TCM",2.21(1.19)
same,BPND (k3/k4) Test,"caudate (R), 2TCM",1.33(0.68)
same,ICC,caudate (R),0.01
same,Error % mean(SD),[4],-96(126) %
same,Error range (%),[4],-288 to12%
same,BPND (k3/k4) Mean,"caudate, 2TCM",1.65
same,BPND (k3/k4) Retest,"caudate, 2TCM",1.92(0.87)
same,BPND (k3/k4) Test,"caudate, 2TCM",1.37(0.55)
same,ICC,caudate,0.01
same,Error range (%),"caudate, BPND test-retest difference in measurements",-155 to 30%
same,Error % mean(SD),"caudate, VT (2TCM) test-retest",25(36) %
same,Error range (%),"caudate, VT (2TCM) test-retest",-35 to 62%
same,VT (2TCM),"caudate, retest",1.06 (0.24)
same,VT (2TCM),"caudate, test",0.88(0.13)
same,BPND (k3/k4) Mean,"cerebellum, 2TCM",1.33
same,BPND (k3/k4) Retest,"cerebellum, 2TCM",1.37(0.24)
same,BPND (k3/k4) Test,"cerebellum, 2TCM",1.29(0.19)
same,ICC,cerebellum,0.07
same,Error % mean(SD),[5],-8% and -8(20) %
same,Error range (%),[5],-21 to 32%
same,Error % mean(SD),[6],-1(18) %
same,Error range (%),[6],-32 to 24%
same,VT (2TCM),"cerebellum, retest",0.72 (0.16)
same,VT (2TCM),"cerebellum, test",0.74(0.18)
same,BPND (k3/k4) Mean,"grey matter, cortex, 2TCM",1.55
same,BPND (k3/k4) Retest,"grey matter, cortex, 2TCM",1.59(0.29)
same,BPND (k3/k4) Test,"grey matter, cortex, 2TCM",1.50(0.27)
same,ICC,"grey matter, cortex",0.47
same,Error % mean(SD),[7],5% and 5(18) %
same,Error range (%),[7],-24 to 25%
same,K1,[8],0.094 mL/cc/min and 0.035 mL/cc/min and 0.044 mL/cc/min and 0.045 mL/cc/min and 0.056 mL/cc/min and 0.057 mL/cc/min
same,k2,[8],0.111 min⁻¹ and 0.086 min⁻¹ and 0.108 min⁻¹ and 0.091 min⁻¹ and 0.099 min⁻¹ and 0.118 min⁻¹
same,k2,"grey matter, 1TCM, retest (2), mean(SD/CV) of 6 subjects",0.102(0.012/12) min^-1
same,K1,[9],0.062 mL/cc/min and 0.037 mL/cc/min and 0.042 mL/cc/min and 0.074 mL/cc/min and 0.054 mL/cc/min
same,k2,[9],0.086 min⁻¹ and 0.087 min⁻¹ and 0.111 min⁻¹ and 0.106 min⁻¹ and 0.116 min⁻¹ and 0.096 min⁻¹
same,K1,[10],0.055(0.014/25) mL/cc/min
same,k2,[10],0.100(0.012/12) min^-1
same,K1,[11],0.077 mL/cc/min and 0.129 mL/cc/min and 0.049 mL/cc/min and 0.067 mL/cc/min and 0.060 mL/cc/min and 0.073 mL/cc/min
same,k2,[11],0.287 min⁻¹ and 0.318 min⁻¹ and 0.246 min⁻¹ and 0.340 min⁻¹ and 0.239 min⁻¹ and 0.234 min⁻¹
same,k3,[11],0.059 min⁻¹ and 0.111 min⁻¹ and 0.062 min⁻¹ and 0.068 min⁻¹ and 0.065 min⁻¹
same,k4,[11],0.041 min⁻¹ and 0.076 min⁻¹ and 0.035 min⁻¹ and 0.032 min⁻¹ and 0.045 min⁻¹ and 0.044 min⁻¹
same,K1,[12],0.076 (0.028/37) mL/cc/min
same,k2,[12],0.277(0.045/16) min^-1
same,k3,[12],0.071(0.02/28) min^-1
same,k4,[12],0.046(0.016/34) min^-1
same,K1,[13],0.082 mL/cc/min and 0.048 mL/cc/min and 0.054 mL/cc/min and 0.094 mL/cc/min and 0.072 mL/cc/min
same,k2,[13],0.220 min⁻¹ and 0.245 min⁻¹ and 0.221 min⁻¹ and 0.264 min⁻¹ and 0.252 min⁻¹
same,k3,[13],0.061 min⁻¹ and 0.055 min⁻¹ and 0.040 min⁻¹ and 0.038 min⁻¹ and 0.076 min⁻¹ and 0.058 min⁻¹
same,k4,[13],0.033 min⁻¹ and 0.038 min⁻¹ and 0.023 min⁻¹ and 0.029 min⁻¹ and 0.067 min⁻¹ and 0.026 min⁻¹
same,K1,[14],0.072(0.018/25) mL/cc/min
same,k2,[14],0.237(0.019/8) min^-1
same,k3,[14],0.055(0.014/25) min^-1
same,Error % mean(SD),[15],-6(17) %
same,Error range (%),[15],-36 to 15%
same,VT (2TCM),"grey matter, retest",0.70 (0.17)
same,VT (2TCM),"grey matter, test",0.76(0.18)
same,BPND (k3/k4) Mean,"putamen (L), 2TCM",1.44
same,BPND (k3/k4) Retest,"putamen (L), 2TCM",1.60(0.67)
same,BPND (k3/k4) Test,"putamen (L), 2TCM",1.28(0.31)
same,ICC,putamen (L),0.02
same,Error % mean(SD),[16],-30(59) %
same,Error range (%),[16],-145 to 23%
